# Patent publication US20210379057A1, “NUTLIN-3A FOR USE IN TREATING A MYCOBACTERIUM TUBERCULOSIS INFECTION” (Massachusetts Institute of Technology, priority 2018, published 2021)
# Experiments:
# [1] = tested on: Mycobacterium tuberculosis (Mtb) in primary human CD14+ monocyte-derived macrophages; type: cell-based
# [2] = tested on: p53; type: cell-based, human
# [3] = tested on: Mtb infected macrophages; test: Macrophage death in Mtb infected macrophages; settings: Mtb infected macrophages treated with compound
SMILES,GFP+/RFP+ pixel area [1],"Mtb control (bacterial survival, ratio of live GFP+ to total mCherry+ pixels) [1]",expression of p53 [2],macrophage death [3]
NNC(=O)c1ccncc1 [isoniazid],decrease in the GFP+/RFP+ pixel area,,,
Cc1ccc2nc(NCCN)c3ncc(C)n3c2c1 [BMS-345541],,worsened bacterial control,,
O=C(Nc1cc(Cl)cc2c1[nH]c1cnccc12)c1cccnc1 [PS-1145],,worsened bacterial control,,
COc1ccc(C2=N[C@@H](c3ccc(Cl)cc3)[C@@H](c3ccc(Cl)cc3)N2C(=O)N2CCNC(=O)C2)c(OC(C)C)c1 [nutlin-3a],,significantly increased Mtb control,enhanced expression of p53,without increasing macrophage death
